The subject of the experiment is L1210 leukemia ip in BDF1 mice, survival T/C. The experiment is described as follows: NCI In Vivo Anticancer Drug Screen. Data for tumor model L1210 Leukemia (intraperitoneal) in B6D2F1 (BDF1) mice. Particulars: endpoint: mean survival time, higher = longer survival. The protocol: The antitumor activity of compounds was measured in mice bearing transplantable tumors. Survival or tumor size were measured and the results are expressed as the measurement made in the treated group (T) divided by the measurement made in the vehicle treated control group (C). The tumor model used in this assay is L1210 Leukemia (intraperitoneal) in B6D2F1 (BDF1) mice

The mark [1] stands for this setting: dose: 100.0 mg/kg/injection, schedule: Q04DX003 (ip), vehicle: Klucel (hydroxypropylcellulose) (HPC).
Where [2] appears, read: dose: 200.0 mg/kg/injection, schedule: Q04DX003 (ip), vehicle: Klucel (hydroxypropylcellulose) (HPC).
Where [3] appears, read: dose: 400.0 mg/kg/injection, schedule: Q04DX003 (ip), vehicle: Klucel (hydroxypropylcellulose) (HPC).
[4] abbreviates: dose: 25.0 mg/kg/injection, schedule: Q04DX003 (ip), vehicle: saline with Tween-80.
The mark [5] stands for this setting: dose: 100.0 mg/kg/injection, schedule: Q01DX001 (ip), vehicle: carboxymethylcellulose (CMC).
[6] abbreviates: dose: 200.0 mg/kg/injection, schedule: Q01DX001 (ip), vehicle: carboxymethylcellulose (CMC).
Where [7] appears, read: dose: 400.0 mg/kg/injection, schedule: Q01DX001 (ip), vehicle: carboxymethylcellulose (CMC).
[8] abbreviates: dose: 100.0 mg/kg/injection, schedule: Q01DX009 (ip), vehicle: saline with Tween-80.
The mark [9] stands for this setting: dose: 100.0 mg/kg/injection, schedule: Q04DX003 (ip), vehicle: saline with Tween-80.
[10] abbreviates: dose: 200.0 mg/kg/injection, schedule: Q04DX003 (ip), vehicle: saline with Tween-80.
Where [11] appears, read: dose: 400.0 mg/kg/injection, schedule: Q04DX003 (ip), vehicle: saline with Tween-80.

In PubChem BioAssay AID248 (DTP/NCI, 2004) one finds T/C data, which are given here for 17 molecules.

Several values for one entry are separate records, joined by “and”; a condition that tells them apart may be missing. Equal values may be shown once. Toxic doses and inconclusive results are not listed.

As to `O=C(/C=C/c1cccnc1)NCC(O)CO` (stereo not given), the T/C (dose: 100.0 mg/kg/injection, schedule: Q01DX009 (ip), vehicle: saline) was 101 % of control; the T/C (dose: 100.0 mg/kg/injection, schedule: Q04DX003 (ip), vehicle: saline) was 108 % of control; the T/C (dose: 200.0 mg/kg/injection, schedule: Q01DX009 (ip), vehicle: saline) was 97 % of control; the T/C (dose: 200.0 mg/kg/injection, schedule: Q04DX003 (ip), vehicle: saline) is 105 % of control; the T/C (dose: 400.0 mg/kg/injection, schedule: Q01DX009 (ip), vehicle: saline) was 100 % of control; the T/C (dose: 400.0 mg/kg/injection, schedule: Q04DX003 (ip), vehicle: saline) is 96 % of control.
As to `CCOC(=O)Nc1ccc(NC(=O)OCC)cc1`, the T/C runs as follows: (dose: 100.0 mg/kg/injection, schedule: Q01DX009 (ip), vehicle: Klucel (hydroxypropylcellulose) (HPC)) 89 % of control; under setting [1], 96 % of control; (dose: 200.0 mg/kg/injection, schedule: Q01DX009 (ip), vehicle: Klucel (hydroxypropylcellulose) (HPC)) 89 % of control; under setting [2], 93 % of control; under setting [3], 111 % of control.
On to `CN(C)C=NC(c1ccccc1)c1ccc(Cl)cc1` (stereo not given), for which the T/C reads like this: (dose: 75.0 mg/kg/injection, schedule: Q01DX009 (ip), vehicle: saline with Tween-80) 95 % of control; (dose: 150.0 mg/kg/injection, schedule: Q01DX009 (ip), vehicle: saline with Tween-80) 95 % of control; (dose: 300.0 mg/kg/injection, schedule: Q01DX009 (ip), vehicle: saline with Tween-80) 100 % of control.
As to `O=C(Nc1ccc(I)cc1)c1cc([N+](=O)[O-])ccc1O`, the T/C by setting is: (dose: 17.0 mg/kg/injection, schedule: Q02DX010 (ip), vehicle: carboxymethylcellulose (CMC)) 99 % of control; (dose: 34.0 mg/kg/injection, schedule: Q02DX010 (ip), vehicle: carboxymethylcellulose (CMC)) 103 % of control; (dose: 68.0 mg/kg/injection, schedule: Q02DX010 (ip), vehicle: carboxymethylcellulose (CMC)) 97 % of control; (dose: 136.0 mg/kg/injection, schedule: Q02DX010 (ip), vehicle: carboxymethylcellulose (CMC)) 95 % of control; (dose: 272.0 mg/kg/injection, schedule: Q02DX010 (ip), vehicle: carboxymethylcellulose (CMC)) 98 % of control.
For `C=CCC(Cc1ccccc1)NCC1CC1` (stereo not given), the T/C is 114 % of control (dose: 6.25 mg/kg/injection, schedule: Q04DX002 (ip), vehicle: saline with Tween-80); 104 % of control (dose: 12.5 mg/kg/injection, schedule: Q04DX002 (ip), vehicle: saline with Tween-80); 111 % of control (dose: 25.0 mg/kg/injection, schedule: Q04DX002 (ip), vehicle: saline with Tween-80).
As for `CCOC(=O)c1ccc(Nc2sc(C(=O)c3ccc(-c4ccccc4)cc3)c(N)c2C#N)cc1`, the T/C (dose: 100.0 mg/kg/injection, schedule: Q04DX002 (ip), vehicle: saline with Tween-80) is 92 % of control; the T/C (dose: 200.0 mg/kg/injection, schedule: Q04DX002 (ip), vehicle: saline with Tween-80) is 86 % of control; the T/C (dose: 400.0 mg/kg/injection, schedule: Q04DX002 (ip), vehicle: saline with Tween-80) is 95 % of control.
Consider `O=C1c2ccccc2-c2c1nc1ccccc1[n+]2[O-]`, for which the T/C by setting is: (dose: 75.0 mg/kg/injection, schedule: Q01DX001 (ip), vehicle: saline sonified) 89 % of control; (dose: 150.0 mg/kg/injection, schedule: Q01DX001 (ip), vehicle: saline sonified) 92 % of control; (dose: 300.0 mg/kg/injection, schedule: Q01DX001 (ip), vehicle: saline sonified) 92 % of control.
Consider `CCCCCCCCCCN1C(=O)C(Cl)=C(Cl)C1=O`, for which the T/C is 103 % of control under setting [4] and 94 % of control (dose: 50.0 mg/kg/injection, schedule: Q04DX003 (ip), vehicle: saline with Tween-80).
`C/C=C\C(=O)N(CC)C(=NCC)c1ccc(NC(=O)c2ccc(C(=O)Nc3ccc(C(=NCC)N(CC)C(=O)/C=C/C)cc3)cc2)cc1`: the T/C is 104 % of control (dose: 0.56 mg/kg/injection, schedule: Q01DX015 (ip), vehicle: methylcellulose (MC)); 112 % of control (dose: 1.12 mg/kg/injection, schedule: Q01DX015 (ip), vehicle: methylcellulose (MC)); 116 % of control (dose: 2.25 mg/kg/injection, schedule: Q01DX015 (ip), vehicle: methylcellulose (MC)); 172 % of control (dose: 4.5 mg/kg/injection, schedule: Q01DX015 (ip), vehicle: methylcellulose (MC)); 164 % of control (dose: 6.25 mg/kg/injection, schedule: Q01DX015 (ip), vehicle: methylcellulose (MC)).
Regarding `CN(C)C(=O)CCCc1ccc(N(CCCl)CCCl)cc1`, the T/C is, setting by setting: (dose: 4.0 mg/kg/injection, schedule: Q12HX018 (ip), vehicle: other) 108 % of control; (dose: 6.0 mg/kg/injection, schedule: Q12HX018 (ip), vehicle: other) 97 % of control; (dose: 8.0 mg/kg/injection, schedule: Q12HX018 (ip), vehicle: other) 103 % of control; under setting [5], 123 % of control; under setting [6], 118 % of control; under setting [7], 103 % of control.
Turning to `CC(C)(C)c1cc(-c2cc(C(C)(C)C)c(O)c(C(C)(C)C)c2)cc(C(C)(C)C)c1O`, the T/C by setting is: under setting [1], 104 % of control; under setting [2], 107 % of control; under setting [3], 98 % of control.
Take `O=C(c1ccc(O)c(C(=O)O)c1)c1ccc(O)c(C(=O)O)c1`: the T/C runs as follows: under setting [5], 95 % of control; under setting [6], 95 % of control; under setting [7], 101 % of control.
As to `CCCCn1c(O)c(C=N)c(=O)n(CCCC)c1=O`, the T/C by setting is: (dose: 25.0 mg/kg/injection, schedule: Q01DX009 (ip), vehicle: saline with Tween-80) 101 % of control; (dose: 50.0 mg/kg/injection, schedule: Q01DX009 (ip), vehicle: saline with Tween-80) 90 % of control; under setting [8], 101 % of control and 86 % of control; under setting [9], 89 % of control; under setting [10], 94 % of control; under setting [11], 89 % of control.
Turning to `CCN(CC)CCNc1cc(C)nc(/N=C(\N)Nc2ccc(OCc3ccccc3)cc2)n1`, the T/C is 100 % of control (dose: 6.25 mg/kg/injection, schedule: Q01DX009 (ip), vehicle: saline with Tween-80); 103 % of control (dose: 6.25 mg/kg/injection, schedule: Q04DX003 (ip), vehicle: saline with Tween-80); 98 % of control (dose: 12.5 mg/kg/injection, schedule: Q01DX009 (ip), vehicle: saline with Tween-80); 101 % of control (dose: 12.5 mg/kg/injection, schedule: Q04DX003 (ip), vehicle: saline with Tween-80); 103 % of control under setting [4].
`CC(C)=CCC/C(C)=C/CN1C(=O)c2ccccc2C1=O`: the T/C runs as follows: under setting [8], 103 % of control; under setting [9], 93 % of control; (dose: 200.0 mg/kg/injection, schedule: Q01DX009 (ip), vehicle: saline with Tween-80) 106 % of control; under setting [10], 102 % of control; (dose: 400.0 mg/kg/injection, schedule: Q01DX009 (ip), vehicle: saline with Tween-80) 95 % of control; under setting [11], 96 % of control.
Turning to `Cc1nn2c(C(=O)O)nnc2s1`, the T/C under setting [5] is 93 % of control, the T/C under setting [6] was 98 % of control and the T/C under setting [7] was 93 % of control.
For `O=C1OC2CCCC1C2` (stereo not given), the T/C by setting is: (dose: 50.0 mg/kg/injection, schedule: Q01DX001 (ip), vehicle: saline with Tween-80) 104 % of control; (dose: 100.0 mg/kg/injection, schedule: Q01DX001 (ip), vehicle: saline with Tween-80) 100 % of control; (dose: 200.0 mg/kg/injection, schedule: Q01DX001 (ip), vehicle: saline with Tween-80) 100 % of control.
